Structures can show the parent of a compound that is named as a salt. Where two headings read alike, the source gives them in different places.
Molecular target: GCN2 (Homo sapiens, UniProt Q9P2K8)
Assay: GCN2 enzymatic endpoint assay: phosphorylation of GFP-eIF2α measured by TR-FRET (Lanthascreen)
Assay type: biochemical
How it was run: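 Phosphorylated eIF2α read by Lanthascreen TR-FRET (acceptor 520 nm over donor 495 nm) after EDTA stop. The reaction ran 90 min at room temperature on 80 nM GFP-eIF2α with 2 μM ATP.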

[1] = tested as described in Example 77, compound and/or hydrochloride, dihydrochloride or trifluoroacetic acid salt, read-out: IC 50 Activity
[2] = GCN2 biochemical IC50, 4 nM GCN2, 2 μM ATP, 80 nM GFP-eIF2α, 90 min RT, read-out: GCN2 activity

GCN2, sequence (Q9P2K8 whole entry): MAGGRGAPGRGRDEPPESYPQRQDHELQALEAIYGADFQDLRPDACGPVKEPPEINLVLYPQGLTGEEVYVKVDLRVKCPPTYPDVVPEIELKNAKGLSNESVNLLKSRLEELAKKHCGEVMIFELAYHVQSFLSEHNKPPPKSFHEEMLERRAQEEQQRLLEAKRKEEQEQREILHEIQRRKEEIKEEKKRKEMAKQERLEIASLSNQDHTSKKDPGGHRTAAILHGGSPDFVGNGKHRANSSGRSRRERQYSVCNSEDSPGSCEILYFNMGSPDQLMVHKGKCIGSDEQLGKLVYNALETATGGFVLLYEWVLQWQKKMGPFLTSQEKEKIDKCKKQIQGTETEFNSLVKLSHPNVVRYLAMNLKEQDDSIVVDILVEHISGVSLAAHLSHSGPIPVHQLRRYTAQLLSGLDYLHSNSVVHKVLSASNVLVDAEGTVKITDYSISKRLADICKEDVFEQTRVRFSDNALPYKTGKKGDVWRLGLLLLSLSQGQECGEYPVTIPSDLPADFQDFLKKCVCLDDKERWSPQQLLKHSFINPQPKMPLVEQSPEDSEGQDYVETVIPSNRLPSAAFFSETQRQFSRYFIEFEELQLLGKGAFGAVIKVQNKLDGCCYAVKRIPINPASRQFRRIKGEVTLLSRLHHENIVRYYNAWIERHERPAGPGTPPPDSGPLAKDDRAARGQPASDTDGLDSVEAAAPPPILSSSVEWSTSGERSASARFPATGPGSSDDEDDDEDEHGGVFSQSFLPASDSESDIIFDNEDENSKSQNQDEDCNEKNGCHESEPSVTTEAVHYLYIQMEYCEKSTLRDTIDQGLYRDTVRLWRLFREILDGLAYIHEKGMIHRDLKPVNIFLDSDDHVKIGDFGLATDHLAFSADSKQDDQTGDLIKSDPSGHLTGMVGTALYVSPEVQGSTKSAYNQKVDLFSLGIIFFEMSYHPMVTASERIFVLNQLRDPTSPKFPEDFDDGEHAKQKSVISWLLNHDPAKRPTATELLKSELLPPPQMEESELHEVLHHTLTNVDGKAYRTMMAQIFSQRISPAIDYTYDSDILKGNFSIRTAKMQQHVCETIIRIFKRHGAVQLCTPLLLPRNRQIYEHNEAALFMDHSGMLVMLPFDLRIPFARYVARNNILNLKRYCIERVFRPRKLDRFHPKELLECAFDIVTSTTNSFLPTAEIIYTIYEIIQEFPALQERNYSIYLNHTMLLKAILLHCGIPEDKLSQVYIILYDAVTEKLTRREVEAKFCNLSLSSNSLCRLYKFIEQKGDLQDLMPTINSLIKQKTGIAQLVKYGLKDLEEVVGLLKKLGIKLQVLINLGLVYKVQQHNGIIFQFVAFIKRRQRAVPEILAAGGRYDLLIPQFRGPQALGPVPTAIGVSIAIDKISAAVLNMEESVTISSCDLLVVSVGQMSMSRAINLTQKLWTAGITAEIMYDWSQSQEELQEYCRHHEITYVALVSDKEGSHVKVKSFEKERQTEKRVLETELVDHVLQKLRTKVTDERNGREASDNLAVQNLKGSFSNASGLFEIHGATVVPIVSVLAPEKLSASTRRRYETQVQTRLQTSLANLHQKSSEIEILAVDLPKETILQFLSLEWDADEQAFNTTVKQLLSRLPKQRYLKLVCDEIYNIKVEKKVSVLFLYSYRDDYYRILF

Row | SMILES | IC50 [1] | IC50 [2]
1 | CNC(=O)[C@]1(C)CC[C@@H](Nc2ncc3c(Br)nn(-c4ccc(-c5nnc(C)s5)c(OCC5CNC5)c4)c3n2)C1 [(1R,3R)-3-[[1-[3-(azetidin-3-ylmethoxy)-4-(5-methyl-1,3,4-thiadiazol-2-yl)phenyl]-3-bromo-pyrazolo[3,4-d]pyrimidin-6-yl]amino]-N,1-dimethyl-cyclopentane-carboxamide] | 0.025 to 0.2 µM | 
2 | CNC(=O)[C@]1(C)CC[C@@H](Nc2ncc3c(Br)nn(-c4cc(CNS(C)(=O)=O)c5ncccc5c4)c3n2)C1 [Example 33, (1R,3R)-3-((3-bromo-1-(8-(methylsulfonamidomethyl)quinolin-6-yl)-1H-pyrazolo[3,4-d]pyrimidin-6-yl)amino)-N,1-dimethylcyclopentane-1-carboxamide; 2,2,2-trifluoroacetic acid] |  | < 0.025 µM
3 | CNC(=O)[C@]1(C)CC[C@@H](Nc2ncc3c(Br)nn(-c4cc(CCC#N)c5ncccc5c4)c3n2)C1 [(1R,3R)-3-[[3-bromo-1-[8-(2-cyanoethyl)-6-quinolyl]pyrazolo[3,4-d]pyrimidin-6-yl]amino]-N,1-dimethyl-cyclopentane-carboxamide] | < 0.025 µM | 
4 | CNC(=O)[C@@H]1CC[C@@H](Nc2ncc3c(Br)nn(-c4cc(Cl)cc(CO)c4)c3n2)C1 [(1R,3R)-3-[[3-bromo-1-[3-chloro-5-(hydroxy-methyl)phenyl]pyrazolo[3,4-d]pyrimidin-6-yl]amino]-N-methyl-cyclopentanecarboxamide] | 0.025 to 0.2 µM | 
5 | CNC(=O)[C@]1(C)CC[C@@H](Nc2ncc3c(Br)nn(-c4cc(CCN5CCOCC5)c5ncccc5c4)c3n2)C1 [(1R,3R)-3-[[3-bromo-1-[8-(2-morpholinoethyl)-6-quinolyl]pyrazolo [3,4-d]pyrimidin-6-yl]amino]-N,1-dimethyl-cyclopentanecarboxamide] | 0.025 to 0.2 µM | 
6 | CNC(=O)[C@H]1C[C@H](Nc2ncc3c(Br)nn(-c4ccc(-c5nnc(C)s5)cc4)c3n2)CO1 [(2R,4S)-4-[[3-bromo-1-[4-(5-methyl-1,3,4-thiadiazol-2-yl)phenyl]pyrazolo [3,4-d]pyrimidin-6-yl]amino]-N-methyl-tetrahydrofuran-2-carboxamide] | 0.025 to 0.2 µM | 
7 | CNC(=O)[C@]1(CC(F)F)CC[C@@H](Nc2ncc3c(Br)nn(-c4ccc(-c5nnc(C)s5)cc4)c3n2)C1 [Example 39, (1R,3R)-3-((3-bromo-1-(4-(5-methyl-1,3,4-thiadiazol-2-yl)phenyl)-1H-pyrazolo[3,4-d]pyrimidin-6-yl)amino)-1-(2,2-difluoroethyl)-N-methylcyclopentane-1-carboxamide; 2,2,2-trifluoroacetic acid] |  | < 0.025 µM
8 | O=C1NCC[C@]12CC[C@@H](Nc1ncc3c(Br)nn(-c4cc(F)c5ncccc5c4)c3n1)C2 [Example 48, (5S,7R)-7-((3-bromo-1-(8-fluoroquinolin-6-yl)-1H-pyrazolo[3,4-d]pyrimidin-6-yl)amino)-2-azaspiro[4.4]nonan-1-one hydrochloride] |  | 0.025 to 0.2 µM
9 | COCCNC(=O)[C@@H]1CC[C@@H](Nc2ncc3c(Br)nn(-c4ccc5cnn(C)c5c4)c3n2)C1 [(1R,3R)-3-((3-bromo-1-(1-methyl-1H-indazol-6-yl)-1H-pyrazolo[3,4-d]pyrimidin-6-yl)amino)-N-(2-methoxyethyl)cyclopentane-1-carboxamide] | 0.2 to 0.5 µM | 
10 | O=C1CC(CNC(=O)[C@@H]2CC[C@@H](Nc3ncc4c(Br)nn(-c5ccc6ncccc6c5)c4n3)C2)CCN1 (stereo partly drawn) [(1R,3R)-3-((3-bromo-1-(quinolin-6-yl)-1H-pyrazolo[3,4-d]pyrimidin-6-yl)amino)-N-((2-oxopiperidin-4-yl)methyl)cyclopentane-1-carboxamide] | 0.025 to 0.2 µM | 
11 | CC[C@@H](N)c1cc(-n2nc(Br)c3cnc(N[C@@H]4CC[C@@](C)(C(=O)NC)C4)nc32)cc2nccnc12 [Example 66, (1R,3R)-3-((1-(8-((R)-1-aminopropyl)quinoxalin-6-yl)-3-bromo-1H-pyrazolo[3,4-d]pyrimidin-6-yl)amino)-N,1-dimethylcyclopentane-1-carboxamide] |  | < 0.025 µM
12 | CNC(=O)C1(CC#N)CC[C@@H](Nc2ncc3c(Br)nn(-c4ccc(-c5nnc(C)s5)c(CCC#N)c4)c3n2)C1 (stereo partly shown) | 0.025 to 0.2 µM | 
13 | C=CC(=O)NCCc1cc(-n2nc(Br)c3cnc(N[C@@H]4CC[C@@](C)(C(=O)NC)C4)nc32)cc2cccnc12 [(1R,3R)-3-[[3-bromo-1-[8-[2-(prop-2-enoylamino)ethyl]-6-quinolyl]pyrazolo [3,4-d]pyrimidin-6-yl]amino]-N,1-dimethyl-cyclopentanecarboxamide] | 0.025 to 0.2 µM | 
14 | CCC(=O)N1CCN(C(=O)[C@@H]2CC[C@@H](Nc3ncc4c(Br)nn(-c5cc(F)c6ncccc6c5)c4n3)C2)C1 [1-[3-[(1R,3R)-3-[[3-bromo-1-(8-fluoro-6-quinolyl)pyrazolo[3,4-d]pyrimidin-6-yl]amino]cyclopentanecarbonyl]imidazolidin-1-yl]propan-1-one] | < 0.025 µM | 
15 | CNC(=O)[C@]1(C)CC[C@@H](Nc2ncc3c(Br)nn(-c4cc(CCN)c5nccnc5c4)c3n2)C1 [(1R,3R)-3-[[1-[8-(2-aminoethyl)quinoxalin-6-yl]-3-bromo-pyrazolo[3,4-d]pyrimidin-6-yl]amino]-N,1-dimethyl-cyclopentane-carboxamide] | 0.025 to 0.2 µM | 
16 | CNC(=O)[C@]1(C)CC[C@@H](Nc2ncc3c(Br)nn(-c4cc(CO)cc(C(F)(F)F)c4)c3n2)C1 [(1R,3R)-3-[[3-bromo-1-[3-(hydroxy-methyl)-5-(trifluoromethyl)phenyl]pyrazolo[3,4-d]pyrimidin-6-yl]amino]-N,1-dimethyl-cyclopentanecarboxamide] | 0.025 to 0.2 µM | 

Row | SMILES | IC50 [1] | IC50 [2]
17 | CC#CC(=O)NCCc1cc(-n2nc(Br)c3cnc(N[C@@H]4CC[C@@](C)(C(=O)NC)C4)nc32)cc2cccnc12 [(1R,3R)-3-[[3-bromo-1-[8-[2-(but-2-ynoylamino)ethyl]-6-quinolyl]pyrazolo [3,4-d]pyrimidin-6-yl]amino]-N,1-dimethyl-cyclopentanecarboxamide] | 0.025 to 0.2 µM | 
18 | CNC(=O)[C@]1(C)CC[C@@H](Nc2ncc3c(Br)nn(-c4cc(C#N)cc(OCCOC)c4)c3n2)C1 [(1R,3R)-3-[[3-bromo-1-[3-cyano-5-(2-methoxyethoxy)phenyl]pyrazolo[3,4-d]pyrimidin-6-yl]amino]-N,1-dimethyl-cyclopentanecarboxamide] | 0.025 to 0.2 µM | 
19 | CNC(=O)[C@]1(C)CC[C@@H](Nc2ncc3c(Br)nn(-c4ccc(-c5ncco5)c([C@@H](C)C#N)c4)c3n2)C1 [(1R,3R)-3-[[3-bromo-1-[3-[(1R)-1-cyanoethyl]-4-oxazol-2-yl-phenyl]pyrazolo[3,4-d]pyrimidin-6-yl]amino]-N,1-dimethyl-cyclopentane-carboxamide] | 0.025 to 0.2 µM | 
20 | NC(=O)[C@@H]1CC[C@@H](Nc2ncc3c(Br)nn(-c4cc(F)c5ncccc5c4)c3n2)C1 [Example 12, (1R,3R)-3-((3-bromo-1-(8-fluoroquinolin-6-yl)-1H-pyrazolo[3,4-d]pyrimidin-6-yl)amino)cyclopentane-1-carboxamide] |  | 0.025 to 0.2 µM
21 | Cc1nnc(-c2ccc(-n3nc(Br)c4cnc(N[C@@H]5CC[C@@](C)(N(C)C)C5)nc43)cc2)s1 | 0.025 to 0.2 µM | 
22 | CC(C)(NC(=O)[C@@H]1CC[C@@H](Nc2ncc3c(Br)nn(-c4cc(C#N)c5ncccc5c4)c3n2)C1)C(N)=O | < 0.025 µM | 
23 | CNC(=O)C1(C#N)CC[C@@H](Nc2ncc3c(Br)nn(-c4cc(Cl)cc([C@H](C)N)c4)c3n2)C1 (stereo partly drawn) [(3R)-3-[[1-[3-[(1S)-1-aminoethyl]-5-chloro-phenyl]-3-bromo-pyrazolo[3,4-d]pyrimidin-6-yl]amino]-1-cyano-N-methyl-cyclo-pentanecarboxamide; 2,2,2-trifluoroacetic acid] | 0.025 to 0.2 µM | 
24 | O=S(=O)(NC1CCOCC1)[C@@H]1CC[C@@H](Nc2ncc3c(Br)nn(-c4ccc5ncccc5c4)c3n2)C1 [(1R,3R)-3-((3-bromo-1-(quinolin-6-yl)-1H-pyrazolo[3,4-d]pyrimidin-6-yl)amino)-N-(tetrahydro-2H-pyran-4-yl)cyclopentane-1-sulfonamide] | 0.2 to 0.5 µM | 
25 | O=C(N[C@H]1CC[C@](O)(C(F)(F)F)CC1)[C@@H]1CC[C@@H](Nc2ncc3c(Br)nn(-c4ccc5ncccc5c4)c3n2)C1 | 0.5 to 1 µM | 
26 | CC1(C(=O)N2CC3CCC(C2)O3)CC[C@@H](Nc2ncc3c(Br)nn(-c4cc(F)c5ncccc5c4)c3n2)C1 (stereo partly drawn) [[(3R)-3-[[3-bromo-1-(8-fluoro-6-quinolyl)pyrazolo[3,4-d]pyrimidin-6-yl]amino]-1-methyl-cyclopentyl]-(8-oxa-3-azabicyclo [3.2.1]octan-3-yl)methanone] | < 0.025 µM | 
27 | O=C(NC1CCOCC1)[C@@H]1CC[C@@H](Nc2ncc3c(Br)nn(-c4ccc5ncccc5c4)c3n2)C1 [(1R,3R)-3-((3-bromo-1-(quinolin-6-yl)-1H-pyrazolo[3,4-d]pyrimidin-6-yl)amino)-N-(tetrahydro-2H-pyran-4-yl)cyclopentane-1-carboxamide] | 0.025 to 0.2 µM | 
28 | CC1(C(N)=O)CC[C@@H](Nc2ncc3c(Br)nn(-c4ccc(-c5ncco5)c(F)c4)c3n2)C1 (stereo partly drawn) [(3R)-3-[[3-bromo-1-(3-fluoro-4-oxazol-2-yl-phenyl)pyrazolo[3,4-d]pyrimidin-6-yl]amino]-1-methyl-cyclopentanecarboxamide] | < 0.025 µM | 
29 | CNC(=O)[C@]1(C)CC[C@@H](Nc2ncc3c(Br)nn(-c4cc(CCNC(C)=O)c5ncccc5c4)c3n2)C1 [(1R,3R)-3-[[1-[8-(2-acetamidoethyl)-6-quinolyl]-3-bromo-pyrazolo[3,4-d]pyrimidin-6-yl]amino]-N,1-dimethyl-cyclopentane-carboxamide] | 0.025 to 0.2 µM | 
30 | CNC(=O)C1(CC#N)CC[C@@H](Nc2ncc3c(Br)nn(-c4ccc(-c5nnc(C)s5)cc4)c3n2)C1 (stereo partly shown) | 0.025 to 0.2 µM | 
31 | CNC(=O)[C@]1(C)CC[C@@H](Nc2ncc3c(Br)nn(-c4ccc(-c5nnc(C6CC6)o5)cc4)c3n2)C1 [(1R,3R)-3-[[3-bromo-1-[4-(5-cyclopropyl-1,3,4-oxadiazol-2-yl)phenyl]pyrazolo[3,4-d]pyrimidin-6-yl]amino]-N,1-dimethyl-cyclopentane-carboxamide] | 0.025 to 0.2 µM | 
